Test results taken from patent US12540143B2, “Methods and compositions for targeted protein degradation” (Ranok Therapeutics (Hangzhou) Co. Ltd., priority 2019, dated 2026).

system: MV4-11 cells; assay: MV4-11 Cytotoxicity Assay; format: cell-based, human; settings: Homo sapiens, MV4-11, 72 h, read-out: MV4-11 cytotoxicity

| SMILES | IC50 [nM] |
| --- | --- |
| CCc1cc(-c2nnc(C(N)=O)n2-c2ccc(CN3CCN(CC4CCN(C(=O)C[C@@H]5N=C(c6ccc(Cl)cc6)c6c(sc(C)c6C)-n6c(C)nnc65)CC4)CC3)cc2)c(O)cc1O [Compound 106, (S)-4-(4-((4-((1-(2-(4-(4-chlorophenyl)-2,3,9-trimethyl-6H-thieno[3,2-f][1,2,4]triazolo[4,3-a][1,4]diazepin-6-yl)acetyl)piperidin-4-yl)methyl)piperazin-1-yl)methyl)phenyl)-5-(5-ethyl-2,4-dihydroxyphenyl)-4H-1,2,4-triazole-3-carboxamide, trifluoroacetic acid] | < 100 |

same assay, conditions: Homo sapiens, MV4-11; 72 hr, CCK-8; read-out: MV4-11 cytotoxicity

| SMILES | IC50 [nM] |
| --- | --- |
| CCc1cc(-c2nnc(C(=O)NCCN(CC)CC)n2-c2ccc(CN3CCN(CC4CCN(C(=O)C[C@@H]5N=C(c6ccc(Cl)cc6)c6c(sc(C)c6C)-n6c(C)nnc65)CC4)CC3)cc2)c(O)cc1O [Compound 104, (S)-4-(4-((4-((1-(2-(4-(4-chlorophenyl)-2,3,9-trimethyl-6H-thieno[3,2-f][1,2,4]triazolo[4,3-a][1,4]diazepin-6-yl)acetyl)piperidin-4-yl)methyl)piperazin-1-yl)methyl)phenyl)-N-(2-(diethylamino)ethyl)-5-(5-ethyl-2,4-dihydroxyphenyl)-4H-1,2,4-triazole-3-carboxamide, trifluoroacetic acid] | < 100 |
| CCc1cc(-c2nnc(C(=O)NC(C)C)n2-c2ccc(CN3CCN(CC4CCN(C(=O)C[C@@H]5N=C(c6ccc(Cl)cc6)c6c(sc(C)c6C)-n6c(C)nnc65)CC4)CC3)cc2)c(O)cc1O [Compound 105, (S)-4-(4-((4-((1-(2-(4-(4-chlorophenyl)-2,3,9-trimethyl-6H-thieno[3,2-f][1,2,4]triazolo[4,3-a][1,4]diazepin-6-yl)acetyl)piperidin-4-yl)methyl)piperazin-1-yl)methyl)phenyl)-5-(5-ethyl-2,4-dihydroxyphenyl)-N-isopropyl-4H-1,2,4-triazole-3-carboxamide, trifluoroacetic acid] | < 100 |
| Cc1sc2c(c1C)C(c1ccc(Cl)cc1)=N[C@@H](CC(=O)N1CCC(CN3CCN(Cc4ccc(-n5c(C(=O)NCCN6CCCCC6)nnc5-c5cc(C(C)C)c(O)cc5O)cc4)CC3)CC1)c1nnc(C)n1-2 [Compound 107, (S)-4-(4-((4-((1-(2-(4-(4-chlorophenyl)-2,3,9-trimethyl-6H-thieno[3,2-f][1,2,4]triazolo[4,3-a][1,4]diazepin-6-yl)acetyl)piperidin-4-yl)methyl)piperazin-1-yl)methyl)phenyl)-5-(2,4-dihydroxy-5-isopropylphenyl)-N-(2-(piperidin-1-yl)ethyl)-4H-1,2,4-triazole-3-carboxamide, trifluoroacetic acid] | < 100 |
| Cc1sc2c(c1C)C(c1ccc(Cl)cc1)=N[C@@H](CC(=O)N1CCC(CN3CCN(Cc4ccc(-n5c(C(=O)NC(C)C)nnc5-c5cc(C(C)C)c(O)cc5O)cc4)CC3)CC1)c1nnc(C)n1-2 [Compound 108, (S)-4-(4-((4-((1-(2-(4-(4-chlorophenyl)-2,3,9-trimethyl-6H-thieno[3,2-f][1,2,4]triazolo[4,3-a][1,4]diazepin-6-yl)acetyl)piperidin-4-yl)methyl)piperazin-1-yl)methyl)phenyl)-5-(2,4-dihydroxy-5-isopropylphenyl)-N-isopropyl-4H-1,2,4-triazole-3-carboxamide, trifluoroacetic acid] | 100 to 1000 |
| Cc1sc2c(c1C)C(c1ccc(Cl)cc1)=N[C@@H](CC(=O)N1CCC(CN3CCN(Cc4ccc(-n5c(C(N)=O)nnc5-c5cc(C(C)C)c(O)cc5O)cc4)CC3)CC1)c1nnc(C)n1-2 [Compound 109, (S)-4-(4-((4-((1-(2-(4-(4-chlorophenyl)-2,3,9-trimethyl-6H-thieno[3,2-f][1,2,4]triazolo[4,3-a][1,4]diazepin-6-yl)acetyl)piperidin-4-yl)methyl)piperazin-1-yl)methyl)phenyl)-5-(2,4-dihydroxy-5-isopropylphenyl)-4H-1,2,4-triazole-3-carboxamide, trifluoroacetic acid] | < 100 |
| Cc1sc2c(c1C)C(c1ccc(Cl)cc1)=N[C@@H](CC(=O)N1CCC(CN3CCN(Cc4ccc(-n5c(C(=O)NCCN6CCCCC6)nnc5-c5ccc(O)cc5O)cc4)CC3)CC1)c1nnc(C)n1-2 [Compound 110, (S)-4-(4-((4-((1-(2-(4-(4-chlorophenyl)-2,3,9-trimethyl-6H-thieno[3,2-f][1,2,4]triazolo[4,3-a][1,4]diazepin-6-yl)acetyl)piperidin-4-yl)methyl)piperazin-1-yl)methyl)phenyl)-5-(2,4-dihydroxyphenyl)-N-(2-(piperidin-1-yl)ethyl)-4H-1,2,4-triazole-3-carboxamide, trifluoroacetic acid] | 100 to 1000 |
| CCN(CC)CCNC(=O)c1nnc(-c2ccc(O)cc2O)n1-c1ccc(CN2CCN(CC3CCN(C(=O)C[C@@H]4N=C(c5ccc(Cl)cc5)c5c(sc(C)c5C)-n5c(C)nnc54)CC3)CC2)cc1 [Compound 111, (S)-4-(4-((4-((1-(2-(4-(4-chlorophenyl)-2,3,9-trimethyl-6H-thieno[3,2-f][1,2,4]triazolo[4,3-a][1,4]diazepin-6-yl)acetyl)piperidin-4-yl)methyl)piperazin-1-yl)methyl)phenyl)-N-(2-(diethylamino)ethyl)-5-(2,4-dihydroxyphenyl)-4H-1,2,4-triazole-3-carboxamide, trifluoroacetic acid] | < 100 |
| Cc1sc2c(c1C)C(c1ccc(Cl)cc1)=N[C@@H](CC(=O)N1CCC(CN3CCN(Cc4ccc(-n5c(C(N)=O)nnc5-c5ccc(O)cc5O)cc4)CC3)CC1)c1nnc(C)n1-2 [Compound 112, (S)-4-(4-((4-((1-(2-(4-(4-chlorophenyl)-2,3,9-trimethyl-6H-thieno[3,2-f][1,2,4]triazolo[4,3-a][1,4]diazepin-6-yl)acetyl)piperidin-4-yl)methyl)piperazin-1-yl)methyl)phenyl)-5-(2,4-dihydroxyphenyl)-4H-1,2,4-triazole-3-carboxamide, trifluoroacetic acid] | < 100 |
| CCc1cc(-c2nnc(C(=O)NCCN3CCCCC3)n2-c2ccc(CN3CCN(CC4CCN(C(=O)C[C@@H]5N=C(c6ccc(Cl)cc6)c6c(sc(C)c6C)-n6c(C)nnc65)CC4)CC3)cc2)c(O)cc1O [Compound 117, (S)-4-(4-((4-((1-(2-(4-(4-chlorophenyl)-2,3,9-trimethyl-6H-thieno[3,2-f][1,2,4]triazolo[4,3-a][1,4]diazepin-6-yl)acetyl)piperidin-4-yl)methyl)piperazin-1-yl)methyl)phenyl)-5-(5-ethyl-2,4-dihydroxyphenyl)-N-(2-(piperidin-1-yl)ethyl)-4H-1,2,4-triazole-3-carboxamide, trifluoroacetic acid] | < 100 |
| CCN(CC)CCNC(=O)c1nnc(-c2cc(C(C)C)c(O)cc2O)n1-c1ccc(CN2CCN(CC3CCN(C(=O)C[C@@H]4N=C(c5ccc(Cl)cc5)c5c(sc(C)c5C)-n5c(C)nnc54)CC3)CC2)cc1 [Compound 118, (S)-4-(4-((4-((1-(2-(4-(4-chlorophenyl)-2,3,9-trimethyl-6H-thieno[3,2-f][1,2,4]triazolo[4,3-a][1,4]diazepin-6-yl)acetyl)piperidin-4-yl)methyl)piperazin-1-yl)methyl)phenyl)-N-(2-(diethylamino)ethyl)-5-(2,4-dihydroxy-5-isopropylphenyl)-4H-1,2,4-triazole-3-carboxamide, trifluoroacetic acid] | < 100 |
